Values quoted from earlier work in patent US7390809B2, “Beta-amino heterocyclic dipeptidyl peptidase inhibitors for diabetes” (Merck & Co., Inc., priority 2002, dated 2008).
Each block holds one molecule with its values, some of them ahead of it.

What was measured:
DP-IV = molecular target: T1, DP-IV (Homo sapiens, UniProt P27487)
T1 construct: GRF is rapidly degraded in plasma to GRF[3-44]

cardiac allograft = conditions: rats; survival doubled from day 7
hematopoiesis = conditions: mouse, cyclophosphamide-induced neutropenia

T1 sequence (P27487 whole entry): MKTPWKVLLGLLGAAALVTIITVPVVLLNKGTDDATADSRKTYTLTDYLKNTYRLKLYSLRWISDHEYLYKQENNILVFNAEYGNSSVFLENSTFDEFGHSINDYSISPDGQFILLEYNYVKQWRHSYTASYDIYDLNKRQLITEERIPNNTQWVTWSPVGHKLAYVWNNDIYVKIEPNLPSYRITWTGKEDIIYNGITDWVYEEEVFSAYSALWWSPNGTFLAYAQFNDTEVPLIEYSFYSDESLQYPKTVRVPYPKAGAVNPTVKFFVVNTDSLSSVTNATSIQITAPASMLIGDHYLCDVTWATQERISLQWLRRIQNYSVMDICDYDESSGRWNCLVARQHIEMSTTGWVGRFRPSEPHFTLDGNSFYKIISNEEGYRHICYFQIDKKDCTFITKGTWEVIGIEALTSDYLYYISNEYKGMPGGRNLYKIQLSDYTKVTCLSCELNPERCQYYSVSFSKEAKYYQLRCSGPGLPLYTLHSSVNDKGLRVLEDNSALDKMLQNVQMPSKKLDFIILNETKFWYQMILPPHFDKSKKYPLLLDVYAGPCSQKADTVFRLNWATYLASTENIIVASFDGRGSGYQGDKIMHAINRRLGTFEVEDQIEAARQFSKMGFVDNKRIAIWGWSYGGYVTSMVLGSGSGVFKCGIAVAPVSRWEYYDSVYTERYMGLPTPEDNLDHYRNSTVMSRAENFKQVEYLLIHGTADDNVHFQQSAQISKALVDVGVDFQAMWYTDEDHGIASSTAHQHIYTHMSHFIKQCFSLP

degradation of GRF in plasma to GRF[3-44] (DP-IV): prevented
Molecule: diprotin A

Molecule: CC(C)N1CCC(c2ccccc2)(c2ccccc2)CC1 [Prodipine, Pro-Pro-diphenyl-phosphonate]
cardiac allograft survival (cardiac allograft): 14 day

Molecule: CC(C)[C@H](N)C(=O)N1CCC[C@H]1B(O)O [Val-Boro-Pro]
effect on hematopoiesis (hematopoiesis): stimulated hematopoiesis
